Measured values reported in patent US8658801B2, “Pesticides containing a bicyclic bisamide structure” (Syngenta Crop Protection, LLC, priority 2006, dated 2014).

Tests used:
[1] = tested on: Myzus persicae (Green Peach Aphid); assay: Example B6: activity against Myzus persicae, mixed population, systemic/feeding, curative (pea seedling roots); conditions: 144 h, read-out: activity
[2] = tested on: Aphis craccivora (Pea Aphid); assay: Example B11: activity against Aphis craccivora, mixed population, systemic/feeding; assay type: in vivo; conditions: 144 h, 6 days, roots in test solution (systemic)
Excerpt: (§1) Activity Against Aphis craccivora (Pea Aphid)
(§2) (Mixed Population, Systemic/Feeding)
(§3) 6 days later, samples are checked for mortality.

[3] = tested on: Myzus persicae (Green Peach Aphid); assay: Example B5: activity against Myzus persicae, mixed population, feeding/residual contact, preventive (sunflower leaf discs); conditions: foliar, 144 h, read-out: activity
[4] = tested on: Heliothis virescens (Tobacco Budworm); assay: Example B2: activity against Heliothis virescens, ovo-larvicide, feeding/contact, curative; assay type: in vivo; conditions: 96 h, 4 days incubation, eggs 0-24 h old
Description: Activity Against Heliothis virescens (Tobacco Budworm)
(Ovo-Larvicide, Feeding/Contact Activity, Curative)
Eggs (0-24 h old) are placed in 24-well microtiter plate on artificial diet and treated with test solutions by pipetting. After an incubation period of 4 days, samples are checked for egg mortality, larval mortality, and growth regulation.

[5] = tested on: Aphis craccivora (Pea Aphid); assay: Example B10: activity against Aphis craccivora, mixed population, contact/feeding; assay type: in vivo; conditions: 144 h, 6 days after treatment, spray (contact/feeding)
Excerpt: as §1
(Mixed Population, Contact/Feeding)
6 days after treatment, samples are checked for mortality.

[6] = tested on: Diabrotica balteata (Corn Root Worm); assay: Example B4: Diabrotica balteata, larvicide, feeding/residual contact, preventive; assay type: in vivo; conditions: 120 h, 5 days incubation, L2 larvae
Summary of the method: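 Artificial diet treated with test solution, dried, then infested with 6-10 L2 larvae per well. Larval mortality, antifeedant effect and growth regulation checked after 5 days of incubation.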

[7] = tested on: Spodoptera littoralis (Egyptian Cotton Leafworm); assay: Example B1: activity against Spodoptera littoralis, larvicide, feeding/residual contact, preventive (cotton leaf discs); assay type: in vivo; conditions: foliar, 72 h, 3 days after treatment, L1 larvae
[8] = tested on: Thrips tabaci (Onion Thrips); assay: Example B7: activity against Thrips tabaci, mixed population, feeding/residual contact, preventive; conditions: 144 h, read-out: activity
[9] = tested on: Plutella xylostella (Diamond Back Moth); assay: Example B3: Plutella xylostella, larvicide, feeding/residual contact, preventive (artificial diet MTP); assay type: in vivo; conditions: 120 h, 5 days incubation, L2 larvae
Summary of the method: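 Artificial diet in multiwell plates treated with test solution, dried, then infested with 10–15 L2 larvae per well. After 5 days, larval mortality, antifeedant effect and growth regulation were scored.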

[10] = tested on: Frankliniella occidentalis (Western Flower Thrips); assay: Example B9: activity against Frankliniella occidentalis (bean leaf discs or bean plants); assay type: in vivo; conditions: foliar, 6 days (leaf discs) or 14 days (plants) after infestation
Description: Activity Against Frankliniella occidentalis (Western Flower Thrips)
Bean leaf discs on agar in petri dishes or bean plants in a spray chamber are treated with diluted test solutions. After drying leaf discs are cut and placed in plastic cups on the surface of an agar layer and infested with mixed population. 6 days (leaf discs) or 14 days (plants) after the infestation, samples are checked for reduction of treated population and compared to the non treated population.

[11] = tested on: Aphis aossypii (Cotton Aphid); assay: Example B13: activity against cotton aphid, mixed population, systemic/feeding; assay type: in vivo; conditions: 144 h, 6 days, roots in test solution (systemic)
Excerpt: Activity Against Aphis aossypii (Cotton Aphid)
as §2, §3

[12] = tested on: Cydia pomonella (Codling Moth); assay: Example B8: activity against Cydia pomonella (paraffin-coated diet cubes); assay type: in vivo; conditions: 336 h, 14 days incubation at 26° C.
Description: Activity Against Cydia pomonella (Codling Moth)
Standard Cydia diet cubes (1.5 cm width) are pierced with a tooth-pick and are immersed in liquid paraffin (ca. 80° C.). After the paraffin coat has hardened, an aqueous emulsion containing 400 ppm of active ingredient is applied using a De Vilbis sprayer (25 ml, 1 bar). After the spray coating has dried, the cubes are put into plastic containers which are then populated with two freshly hatched Cydia pomonella (1st instar). The containers are then closed with a plastic cap. After 14 days incubation at 26° C. and 40-60% relative humidity, the survival rate of the caterpillars as well as their growth regulation is determined. In this test, compounds listed in Table P above show good activity. In particular compounds P.10, P.11, P.12, P.18, P.19, P.20, P.29, P.30, P.31, P.32, P.33, P.34, P.35, P.37, P.38, P.39, P.42, and P.43 show an activity of over 80% at a concentration of 400 ppm.

Measured: pest or weed control at 400 ppm

O=C(NC1(C2CC2)CC1)c1c(NC(=O)c2cc(Br)nn2-c2ncccc2Cl)c(Cl)cc2cn[nH]c12 [P.46]
not listed: [11] | [12]
> 80%: all other assays above

COc1cc(C(=O)Nc2c(C)cc3cn[nH]c3c2C(=O)NC(C)C)n(-c2ncccc2Cl)n1 [P.27, 6-{[2-(3-chloro-pyridin-2-yl)-5-methoxy-2H-pyrazole-3-carbonyl]-amino}-5-methyl-1H-indazole-7-carboxylic acid isopropylamide]
not listed: [12]
> 80%: all other assays above

CC(C)NC(=O)c1c(NC(=O)c2cc(C(F)F)nn2-c2ncccc2Cl)c(Cl)cc2cn[nH]c12 [P.39]
not listed: [5]
> 80%: all other assays above

CC(C)(CS(C)(=O)=O)NC(=O)c1c(NC(=O)c2cc(C(F)(F)F)nn2-c2ncccc2Cl)c(Br)cc2cn[nH]c12 [P.34]
not listed: [2] | [5] | [11]
> 80%: all other assays above

COc1cc(C(=O)Nc2c(C)cc3cn[nH]c3c2C(=O)NC2(C3CC3)CC2)n(-c2ncccc2Cl)n1 [P.28, 6-{[2-(3-chloro-pyridin-2-yl)-5-methoxy-2H-pyrazole-3-carbonyl]-amino}-5-methyl-1H-indazole-7-carboxylic acid bicyclopropyl-1-ylamide]
not listed: [12]
> 80%: all other assays above

Cc1cc2cn[nH]c2c(C(=O)NC(C)C)c1NC(=O)c1cc(C(F)(F)F)nn1-c1ncccc1Cl [P.44]
not listed: [12]
> 80%: all other assays above

COc1cc(C(=O)Nc2c(Cl)cc3cn[nH]c3c2C(=O)NC(C)(C)CS(C)(=O)=O)n(-c2ncccc2Cl)n1 [P.60]
not listed: [5] | [6] | [8] | [12]
> 80%: all other assays above

O=C(NC1(C2CC2)CC1)c1c(NC(=O)c2cc(C(F)(F)F)nn2-c2ncccc2Cl)c(Cl)cc2cn[nH]c12 [P.12]
not listed: [2] | [5] | [11]
> 80%: all other assays above

CSCC(C)(C)NC(=O)c1c(NC(=O)c2cc(C(F)(F)F)nn2-c2ncccc2Cl)c(Br)cc2cn[nH]c12 [P.33]
not listed: [5] | [11]
> 80%: all other assays above

COc1cc(C(=O)Nc2c(Cl)cc3cn[nH]c3c2C(=O)NC2(C)CS(=O)(=O)C2)n(-c2ncccc2Cl)n1 [P.61, 5-chloro-6-{[2-(3-chloro-pyridin-2-yl)-5-methoxy-2H-pyrazole-3-carbonyl]-amino}-1H-indazole-7-carboxylic acid (3-methyl-1,1-dioxo-1lambda*6*-thietan-3-yl)-amide]
not listed: [5] | [6] | [8] | [12]
> 80%: all other assays above

COc1cc(C(=O)Nc2c(Cl)cc3cn[nH]c3c2C(=O)NC(C)C)n(-c2ncccc2Cl)n1 [P.40]
not listed: [6] | [12]
> 80%: all other assays above

Cc1cc2cn[nH]c2c(C(=O)NC2(C3CC3)CC2)c1NC(=O)c1cc(C(F)(F)F)nn1-c1ncccc1Cl [P.49]
not listed: [11] | [12]
> 80%: all other assays above

Cc1cc2cn[nH]c2c(C(=O)NC(C)C)c1NC(=O)c1cc(C(F)F)nn1-c1ncccc1Cl [P.56, 6-{[2-(3-chloro-pyridin-2-yl)-5-difluoromethyl-2H-pyrazole-3-carbonyl]-amino}-5-methyl-1H-indazole-7-carboxylic acid isopropylamide]
not listed: [5] | [6] | [12]
> 80%: all other assays above

CC(C)NC(=O)c1c(NC(=O)c2cc(C(F)(F)F)nn2-c2ncccc2Cl)c(Cl)cc2cn[nH]c12 [P.10]
not listed: [11]
> 80%: all other assays above
